From patent publication US12055553B2, “Method for diagnosing risk for inflammatory disease through glycan profiling” (The Regents of the University of California, priority 2017, dated 2024)

Experiments:
THP-1 cells = assay: Lectin array of THP-1 monocyte cell surface glycan composition after monosaccharide supplementation; assay type: cell-based; settings: 3 days
Procedure: THP-1 cells (monocyte cell line) were incubated with different sugars (i.e. monosaccharides) for 3 days. Lectin arrays were used to detect changes in the cell surface glycan composition. Secreted HDL from the cell supernatant (monocytes secrete their own HDL) was isolated and then analyzed to determine the glycan composition.
• ConA (Concanavalin A): binds internal and nonreducing terminal α-D-mannosyl (αMan) and α-D-glucosyl groups (αGIc) • JAC (Jacalin): binds galactose-containing O-glycoproteins (Galβ3GalNac) • SNA (Sambucus nigra): binds sialic acid attached to terminal galactose in α-2,6 and to a lesser degree, α-2,3 linkage (Neu5Acα6Gal/GalNac) • AAL (Aleuria auanda lectin): binds fucose linked (α-1,6) to N-acetylglucosamine or to fucose linked (α-1,3) to N-acetyllactosamine related structures, exposed core (α-1, 6) and outer arm (α-1, 2 or α-1, 3) linked fucose moieties. Sugar Treatments: • L-fucose: Tested 2 doses: 300 umol/L (physiologic) and 100 mmol/L. (Marquardt T, Blood, December 15; 94(12):3976-85, 1999): Named L-Fuc Low and L-Fuc High • Fructose: Tested 2 doses: 27 mmol/L (physiologic) and 100 mmol/L. (Hui H, Pancreas, August 38(6): 706-12, 2009); Named Fruc Low and Fruc High • N-acetylglucosamine (GlcNAc): Tested 1 dose: 100 mmol/L. (Villiger TK, Controlling the time evolution of mAb N-finked glycosylation, Part I: Microbioreactor experiments, Biotechnol Prog, September; 32(5):1123-1134, 2016) • Galactose: The two doses for the galactose treatment in the glycan array experiments were: 150 mmol/L and 75 mmol/L. (Villiger TK, Controlling the time evolution of mAb N-linked glycosylation, Part II: Model-based predictions, Biotechnol Prog, September; 32(5):135-1148, 2016)

Caco-2 cells = assay type: cell-based; settings: for change in high mannose type glycans / change in the groups of cell surface glycans presented: treated vs untreated; for change in high mannose type glycans / decrease in fucosylated compounds: lactose 70 mg/L; for change in non-decorated complex/hybrid type N-glycans: galactose; for decrease in fucosylated compounds: high galactose; for change in the groups of cell surface glycans presented: glucose 25 mM, glutamate 2 mM, glutathione 2 mM; for change in fucosylated glycans / fucosylation: acetate, lactate
Procedure: (§1) We examined whether supplementation of free monosacchaides derived from diet changes N-glycosylation outcomes on the intestinal cell-surface at concentrations relevant to physiological conditions. Changes in glycosylation were assessed by globally releasing glycans from membrane proteins extracted from fully differentiated (Caco-2) and partially differentiated (HT-29) intestinal epithelial cells and analyzing the mixture by porous graphitized carbon (PGC)-LC-MS. […] The glycan profile under normal growth conditions was used as a frame of reference with which to compare the glycome at varied environments.
(§2) Human colorectal adenocarcinoma Caco-2 cells derived from a person, were obtained from American Type Culture Collection (ATCC, VA) and grown in Eagle's Minimum Essential Medium (EMEM) supplemented with non-essential amino acids, 2 mM L-glutamine, 10% (v/v) fetal bovine serum (Life Technologies, NY), 1 mM sodium pyruvate, 1.5 g/L sodium bicarbonate, 100 U/mL penicillin, and 100 μg/mL streptomycin. Alternatively, Caco-2 cells were grown in Dulbecco's Modified Eagle's Medium (DMEM) supplemented with 10% (v/v) fetal bovine serum, 100 U/mL penicillin, and 100 μg/mL streptomycin. Human colorectal adenocarcinoma HT-29 cells, derived from a person, were obtained from ATCC and grown in McCoy's 5A medium supplemented with 10% (v/v) fetal bovine serum, 100 U/mL penicillin, and 100 μg/mL streptomycin. Cells were subcultured at 80% confluency and maintained at 37° C. in a humidified incubator with 5% CO=2. All treatments were added to the media after cell differentiation. Caco-2 cells were fully differentiated 14-days post-confluency. HT-29 cells were partially differentiated 4-days post-confluency. After 72 h, cells were collected in biological triplicates by scraping A fixed count of 2×10^6 viable cells was used for each experiment Passage number between experiments was controlled to no higher than P40 and a delta P of no more than 20. High passage cells were scraped after P80. Media was renewed three times a week unless specified. Monolayer integrity and quality of cell borders were evaluated under the microscope routinely during growth and before harvest.
(§3) In brief harvested cells were resuspended in homogenization buffer containing 0.25 M sucrose, 20 mM HEPES-KOH (pH 7.4), and 1:100 protease inhibitor (EMD Millipore, CA). Cell lysis was performed on ice using a probe sonicator (Qsonica, CT) with five alternating and on and off pulses in 5 and 10 s intervals, respectively. Lysates were […] at 2,000×g for 10 min to remove the nuclear fraction and cellular debris. The supernatant was collected and brought to 1 mL with homogenization buffer for ultracentrifugation at 200,000×g for 45 min at 4° C. The pallet was resuspended and repelleted by ultracentrifugation in 0.2 M Na2CO3 (pH 11) followed by water to fragment the endoplasmic reticulum and remove the cytoplasmic fraction, respectively. The resulting membrane faction was isolated and stored at −20° C. until further processing.
(§4) Membrane pellets were resuspended with 100 μL of 100 mM ammonium bicarbonate in 5 mM dithiothreitol and heated for 10 s at 100° C. to thermally denature the proteins. […] After addition of 400 μL of chilled ethanol, samples were placed in −80° C. for 1.5 h and centrifuged for 20 min at 21,130×g to precipitate residual deglycosylated proteins. The supernatant containing the released N-glycans was collected and dried. N-Glycans were purified by solid phase extraction containing a porous graphitized carbon (PGC) matrix. Eluted fractions were dried in vacuo.

HT-29 cells = assay: Cell surface N-glycan profiling (PGC-LC-MS) of HT-29 after supplementation; assay type: cell-based, Human; settings: for change in high mannose type glycans: glutamate 2 mM; for change in the HT-29 glycome / major groups of glycans: acetate, lactate 10 mM, glutathione 2 mM
Procedure: as §1, §2, §3, §4

[1] = cited from earlier work
[2] = high dose (galactose 150 mmol/L, fructose 100 mmol/L, L-fucose 100 mmol/L)
[3] = low dose (galactose 75 mmol/L, fructose 27 mmol/L, L-fucose 300 umol/L)
[4] = HT-29, 72 h, fructose 50 mM, glutamine 10 mM
[5] = Caco-2, 72 h, fucose 25 mM, butyrate 10 mM, glutamine 10 mM

O=C[C@H](O)[C@@H](O)[C@@H](O)[C@H](O)CO [galactose]
AAL binding (fucosylated glycans) (THP-1 cells; [2]): increased | ConA binding (glucose or mannose-terminated glycans) (THP-1 cells; [2]): increased | JAC binding (terminal galactose containing glycans) (THP-1 cells; [2]): increased | SNA binding (terminal sialic acid) (THP-1 cells; [2]): increased | JAC binding (terminal galactose containing glycans) (THP-1 cells; [3]): decreased | SNA binding (terminal sialic acid) (THP-1 cells; [3]): increased | change in high mannose type glycans (Caco-2 cells; Caco-2, 72 h, glutamine 10 mM): significant Increases | change in non-decorated complex/hybrid type N-glycans (Caco-2 cells; Caco-2, 72 h, glutamine 10 mM): significant Increases | decrease in fucosylated compounds (Caco-2 cells; Caco-2, 72 h): 20% | decrease in relative abundances of fucosylated and sialylated glycans (Caco-2 cells; Caco-2, galactose-treated, 72 h): 12-28% | afucosylated glycans as share of all complex/hybrid glycans (Caco-2 cells; galactose-treated Caco-2 (untreated 15%)): 46% | asialylated glycans as share of all complex/hybrid glycans (Caco-2 cells; galactose-treated Caco-2 (untreated 23%)): 58%

N[C@@H](CCC(=O)O)C(=O)O [glutamate]
change in the groups of cell surface glycans presented (Caco-2 cells; Caco-2, 72 h): relatively unaffected | change in high mannose type glycans (HT-29 cells; [4]): unperturbed | decline in fucosylation with respect to the control (HT-29 cells; HT-29, glutamate 2 mM, 72 h): 44.4%

NC(=O)CC[C@H](N)C(=O)O [glutamine, L-glutamine]
change in high mannose type glycans (Caco-2 cells; Caco-2, 72 h, glutamine 10 mM): significant increases | increase in abundance of high mannose type N-glycans (Caco-2 cells; Caco-2, 72 h, fructose 50 mM, glutamine 10 mM): 507% | change in sialylated glycans (Caco-2 cells; Caco-2, 72 h, fucose 25 mM, Ac5-Sia up to 10 mM, butyrate 10 mM, glutamine 10 mM): remarkable constancy | change in fucosylated glycans / fucosylation (Caco-2 cells; [5]): significant increases | change in non-decorated complex/hybrid type N-glycans (Caco-2 cells; Caco-2, 72 h, glutamine 10 mM): significant increases | fold increase of each of Man 5-Man 9 (Caco-2 cells; Caco-2, glutamine 10 mM, 72 h): more than 6 fold | change in fucosylated glycans (HT-29 cells; [4]): significant increases | change in high mannose type glycans (HT-29 cells; [4]): significant increases | change in non-decorated complex/hybrid types of glycans (HT-29 cells; HT-29, glutamine 10 mM, 72 h): significant increases

N[C@@H](CCC(=O)N[C@@H](CS)C(=O)NCC(=O)O)C(=O)O [glutathione]
change in the groups of cell surface glycans presented (Caco-2 cells; Caco-2, 72 h): essentially unaltered | change in the HT-29 glycome / major groups of glycans (HT-29 cells; HT-29, 72 h): essentially unaltered | increase in high mannose type glycans (HT-29 cells; HT-29, glutathione 2 mM, 72 h): 37.1%

CC(O)C(=O)O (centres unmarked) [lactate]
change in fucosylated glycans / fucosylation (Caco-2 cells; [5]): significant increase | fold decrease of Hex6HexNAc6Fuc1NeuAc3 (Caco-2 cells; Caco-2, SCFA 10 mM, 72 h): 3.7 fold | fold decrease of Hex7HexNAc7Fuc1NeuAc1 (Caco-2 cells; Caco-2, SCFA 10 mM, 72 h): 3.4 fold | fold increase of Hex6HexNAc6NeuAc1 (Caco-2 cells; Caco-2, SCFA 10 mM, 72 h): 10 fold | change in the HT-29 glycome / major groups of glycans (HT-29 cells; HT-29, 72 h): minimal effects

OC[C@H]1O[C@@H](O[C@H]2[C@H](O)[C@@H](O)C(O)O[C@@H]2CO)[C@H](O)[C@@H](O)[C@H]1O (some centres unmarked) [lactose]
change in high mannose type glycans (Caco-2 cells; Caco-2, 72 h, glutamine 10 mM): did not cause dramatic changes | decrease in fucosylated compounds (Caco-2 cells; Caco-2, 72 h): 20%

CC(=O)N[C@H]1[C@H]([C@H](O)[C@H](O)CO)OC(O)(C(=O)O)C[C@@H]1O (some centres unmarked) [sialic acid]
pKa [1]: 2.6
